Data reported in patent US8686016B2, “Schweinfurthins and uses thereof” (The United States of America, as represented by the …, priority 2009, dated 2014).
Entries after “also recorded” stand apart in the source; their conditions may differ.

Experiments:
primary astrocytes = experiment: Cell morphology / actin confocal microscopy, primary astrocytes; assay type: cell-based, mouse; conditions: 18 hours treatment
Method: (§1) Cell Morphology Assays and Confocal Microscopy: To assay cytoskeleton morphology, KR158 cells, mouse primary astrocytes, KR158 clones expressing the NF1-GRD constructs, K14553 cells, and A549 were seeded to cover slips and allowed to reattach overnight. Cells were treated for 18 hours with either the indicated concentrations of SA, or the vehicle control DMSO. The cover slips were fixed in 3.7% paraformaldehyde, permeablized in 0.1% Triton-X100, and stained with Alexa Fluor 488-phalloidin (Invitrogen, Carlsbad, Calif., USA) to detect actin and cells were mounted in Prolong Antifade containing DAPI (Invitrogen) to stain nuclei. The cells were imaged on a LSM510 confocal microscope (Carl Zeiss Inc., Jena, Germany). For phospho-myosin light chain 2 (MLC) detection, cells were seeded to coverslips as described above. Cells were serum starved in 0.5% FBS and SA or DMSO vehicle control for 18 hours, and then pulsed with 10 ng/mL EGF (Invitrogen) for 5 min. […] Actin structures were monitored continuously over a 16 hr period using confocal microscopy equipped with a growth chamber (37° C., humidified atmosphere and 5% CO2). […]

[1] = tested on: empty vector transduced KR158 cells; experiment: Cell morphology / actin confocal microscopy, empty vector KR158; assay type: cell-based, mouse
Method: (§2) Constructs and Transfections: NF1-GRD retroviral constructs were obtained from Indiana University. Cells transduced with the NF1-GRD construct or PMSCV empty vector control as previously described (Hiatt et al., J. Biol. Chem., 2001, 276:7240-5) were maintained in 1 μg/mL puromycin (Sigma).
as §1, with “above.” for “above. Cells were serum starved in 0.5% FBS and SA or DMSO vehicle control for 18 hours, and then pulsed with 10 ng/mL EGF (Invitrogen) for 5 min.”

Rho = Rho GTPase pull-down assay; assay type: cell-based, mouse; conditions: EGF pulsed KR158 cells, 12 hrs and 18 hrs
Method: Rho GTPase Pull-Down Assay: The Rho pull down assay was obtained from Upstate Biolotech/Millipore (Billerica, Mass., USA, Cat#17-294). KR158 cells were harvested at approximately 80% confluency and seeded at 5×10^5 cells per well in a 6-well plate. After overnight recovery, cells were serum starved in 0.5% FBS for 18 hrs. Cells were then treated with 10 ng/mL EGF either in the presence or the absence of the indicted concentrations of SA for up to 18 hours. At the indicated time points, the cells were lysed according to the manufacturer's protocols. Proteins pulled down by the Rho-GTP binding beads were eluted by SDS, fractionated on a 10% SDS-PAGE gel, and transferred to a nitrocellulose membrane. Pre-pull-down lysates were run in parallel to determine total levels of Rho in each sample. The membrane was probed by an anti Rho antibody.

[2] = tested on: sporadic MPNST STS26T cells; experiment: XTT cell proliferation assay, STS26T; assay type: cell-based, human
Method: (§3) XTT Cell Proliferation Assay: Cells were seeded into 96-well plates at a density of 2,000 cells/well and allowed to reattach overnight. Cells were treated with SA, synthetic analogs, camptothecin (NCI Chemotherapeutics Repository, Md., USA), or DMSO control at the indicated concentrations continuously for 48 hours followed by assay in the 96-well plate for relative viable cell number using the dye […] (XTT) and a Wallac-Victor 2 plate reader (Perkin-Elmer, Waltham, Mass., USA). Absorbance was determined at 450 nm with 650 nm as a reference reading. Primary astrocytes were additionally assayed at a 96 hour time point.
Cell lines and culture: Human MPNST cell lines (STS26T and T265) were obtained from the Pediatric Oncology Branch, NCI (Bethesda, Md., USA).

[3] = tested on: KR158 cells transduced with empty vector (PMSCV); experiment: XTT cell proliferation assay, KR158 empty vector; assay type: cell-based, mouse; conditions: two-day cell proliferation assay
Method: as §3, §2

[4] = tested on: MPNST cell lines derived from the NPcis mouse; experiment: Cell morphology / actin, MPNST cell lines; assay type: cell-based
Method: as §1

[5] = tested on: SF-295 human glioma cells; experiment: Clonogenic assay, SF-295; assay type: cell-based; conditions: 18 hrs treatment, colonies after one week
Method: Clonogenic Assays: Monolayers of cells were treated for 18 hrs with SA, and then harvested, counted, and seeded to 35 mm dishes at a density of 1000 cells per dish. After one week, macroscopic colonies were stained with crystal violet (Sigma, St. Louis, Mo., USA) and counted.

SF-295 cells = experiment: XTT cell proliferation assay, SF-295; assay type: cell-based, human; conditions: 48 hours
Method: as §3

Structure (SMILES): CC(C)=CCC/C(C)=C/Cc1c(O)cc(/C=C/c2cc(O)c3c(c2)C[C@@H]2C(C)(C)[C@H](O)[C@H](O)C[C@@]2(C)O3)cc1O [SA, Schweinfurthin A]
- actin organization, phalloidin staining (primary astrocytes): no visible changes in actin organization
- F-actin structures [1]: same reorganization of F-actin structures
- Rho activity (Rho): marked inhibition of Rho activity
- inhibition of proliferation [2]: much weaker inhibition of proliferation; also recorded: are not
- inhibition of proliferation [3]: highly active
- actin cytoskeleton [4]: loss of stress fibers
- colony growth [5]: inhibited; also recorded: dramatically restricted
- inhibition of proliferation (percent viability versus control) (SF-295 cells): sensitive; also recorded: inhibited both the KR158 and SF-295 cell lines in a dose dependent manner
